In article PMC4994406, “Molecular cloning and characterization of a flavonoid-O-methyltransferase with broad substrate specificity and regioselectivity from Citrus depressa” (BMC Plant Biology, 2016):

Assays:
CdFOMT5 [1] = target: T1, CdFOMT5 (Citrus depressa, UniProt A0A125T1T5); experiment: HPLC of methylated product; format: biochemical; details: 500 uM SAM, 100 uM substrate, 50 mM potassium phosphate pH 7.0, 30 °C, 1 h
T1 construct: gene FOMT5; full-length cDNA from fruit pericarp, C-terminal 6x His tag kept, pET21b(+) BamHI/SalI, E. coli BL21(DE3), Ni-Sepharose
T1 sequence (A0A125T1T5 1-353): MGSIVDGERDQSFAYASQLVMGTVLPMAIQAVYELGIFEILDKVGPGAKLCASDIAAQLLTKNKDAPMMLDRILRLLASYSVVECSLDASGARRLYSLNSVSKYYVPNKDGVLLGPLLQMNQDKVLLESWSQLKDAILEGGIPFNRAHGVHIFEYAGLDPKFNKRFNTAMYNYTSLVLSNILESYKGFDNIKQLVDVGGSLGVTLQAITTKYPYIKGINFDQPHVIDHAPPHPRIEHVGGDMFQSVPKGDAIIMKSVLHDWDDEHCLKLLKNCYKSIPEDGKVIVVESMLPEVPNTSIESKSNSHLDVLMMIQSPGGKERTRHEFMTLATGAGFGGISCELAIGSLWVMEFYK

CdFOMT5 [2] = target: T1, CdFOMT5; experiment: HPLC and LC-MS of O-methylated products; format: biochemical; details: 500 uM SAM, 100 uM substrate, 50 mM potassium phosphate pH 7.0, 30 °C, 1 h

SMILES	HPLC of methylated product (CdFOMT5 [1])	HPLC and LC-MS of O-methylated products (CdFOMT5 [2])
O=c1c(O)c(-c2ccccc2)oc2ccccc12 [3-hydroxyflavone]	the highest activity was observed for 3-hydroxyflavone (flavonol) based on the peak area	
O=c1c(O)c(-c2ccc(O)c(O)c2)oc2cc(O)cc(O)c12 [S, quercetin]		several peaks corresponding to O-methylated products were detected by HPLC analysis
